Data: ChEMBL document CHEMBL1135202, “Design, synthesis and evaluation of 4-imidazolylflavans as new leads for aromatase inhibition” (Bioorg Med Chem Lett, 2002)

Experiments:
Design in all cases: species or system Placenta
Aromatase [1] = biological target: T1, Aromatase (Homo sapiens, UniProt P11511); test: Relative potency for aromatase inhibition in human placental microsomes compared to flavanone
T1 sequence (P11511 whole entry): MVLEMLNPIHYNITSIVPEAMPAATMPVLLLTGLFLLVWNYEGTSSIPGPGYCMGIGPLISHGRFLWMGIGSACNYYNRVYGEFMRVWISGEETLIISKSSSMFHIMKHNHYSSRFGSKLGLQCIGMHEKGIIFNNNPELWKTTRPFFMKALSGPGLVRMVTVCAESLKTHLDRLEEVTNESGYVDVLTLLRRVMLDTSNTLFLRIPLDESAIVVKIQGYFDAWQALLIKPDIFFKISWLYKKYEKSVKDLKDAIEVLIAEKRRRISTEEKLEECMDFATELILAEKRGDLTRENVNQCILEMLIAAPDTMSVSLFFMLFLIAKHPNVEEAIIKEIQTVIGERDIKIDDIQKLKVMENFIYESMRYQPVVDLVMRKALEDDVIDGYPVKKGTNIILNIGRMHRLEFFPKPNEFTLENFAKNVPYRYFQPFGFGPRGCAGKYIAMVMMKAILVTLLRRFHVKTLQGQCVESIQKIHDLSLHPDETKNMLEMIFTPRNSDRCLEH

Aromatase [2] = biological target: T1, Aromatase; test: Relative potency for aromatase inhibition in human placental microsomes compared to aminoglutethimide
Aromatase [3] = biological target: T1, Aromatase; test: Inhibition of aromatase activity in human placental microsomes

Relative potency (Aromatase [1]): 93
Relative potency (Aromatase [2]): 127
IC50 (Aromatase [3]): 41 nM
SMILES: Oc1ccc2c(c1)OC(c1ccccc1)CC2n1ccnc1 (stereo not drawn)
